Measurements published in patent US20070010458A1, “Drugs for the arthritis treatment” (priority 2002, published 2007).

What was measured:
[1] = tested on: IL-6 release in mouse spleen lymphocytes; experiment: IL-6 release in mouse spleen lymphocytes (in vitro, ELISA); assay type: cell-based; conditions: 10 μg/ml endotoxin, compound 50 μM, 24 hours, placebo = 100
Description: (§1) Spleen lymphocytes were prepared as it follows. Mice were killed by an overdose of ether, and spleens were collected and maintained in a sterile RPMI medium (Sigma-Aldrich) containing 0.5% (vol/vol) L-glutamine and 0.5% (vol/vol) sterile endotoxin-free fetal calf serum (FCS). The spleens were opened and the content (whole cells) collected and diluted with RPMI.
(§2) After repeated washings, cells were suspended in 10 ml of RPMI containing 1% (vol/vol) streptomycin and 1% (vol/vol) penicillin. The suspension was then incubated at 37° C. for 24 hours, in an O2/CO2 atmosphere (95%/5% v/v). Monocytes were eliminated by adhesion, and lysis of red cells was obtained by suspension in a solution 0.15 mol/liter NH4Cl and 1 mmol/liter KHCO3. The resulting lymphocytes were resuspended in RPMI-FCS, incubated for 30 minutes at 37° C. with anti-FAS, anti-FASL, or anti-IL2 receptor monoclonal antibodies, and then washed twice with RPMI-FCS. Cells were then incubated with the FITC-conjugated secondary antibody for 30 mins at 4° C., washed twice, and resuspended in PBS/formaldehyde (0.5%). Control samples were treated with the FITC-conjugated secondary antibody only. Stained cells were analysed on a flow cytofluorimeter. Cells were gated using forward vs side scatter to exclude dead cells and debris.
(§3) Cells were transferred in plate and then 10 μg/ml endotoxin and each of the following compounds at a concentration of 50 μM added: • Placebo (no compound added); • Flurbiprofen; • NO-Flurbiprofen; the compound was prepared as described in ex. F1, above; • Indomethacin; • NO-indomethacin; the compound was prepared as described in the example on page 45 of WO 98/09948; • then it was incubated for 24 hours • IL-6 and TGF-β released in cell supernatant was measured by ELISA assay, taking as 100% release that of placebo group.

[2] = tested on: TGF-β release in mouse spleen lymphocytes; experiment: TGF-β release in mouse spleen lymphocytes (in vitro, ELISA); assay type: cell-based; conditions: 10 μg/ml endotoxin, compound 50 μM, 24 hours, placebo = 100
Description: as §1, §2, §3

type II collagen mRNA = experiment: Type II collagen mRNA steady-state levels in human articular chondrocytes; assay type: cell-based; conditions: human articular chondrocytes in hypoxia (5% v/v O2), with or without IL-1β, compound 10^−5M, 48 h
Description: The steady-state levels of mRNA for type II collagen and TGF-β type II receptor (TβRII) was evaluated in human articular chondrocytes (HAC), cultured in hypoxia (5% v/v O2). The cells were treated or not with interleukin-1β (IL-1β) an agent favouring OA pathology, and NO-NSAIDs, or the corresponding NSAIDs at 10^−5M for 48 h.

[3] = tested on: proteoglycan synthesis in human chondrocytes; experiment: Proteoglycan synthesis in TNFα-treated human chondrocytes ([35S]-sulfate incorporation); assay type: cell-based; conditions: TNFα 80 ng/ml, compound 100 μM, 24 hours, control without TNFα = 100, vehicle + TNFα = 22
Description: (§4) Human chondrocytes were isolated by collagenase digestion from knee cartilage collected from patients undergoing knee replacement surgery. Only primary culture was used to avoid phenotype change of human chondrocytes. TNFα (80 ng/ml) was added to all but control cells. Test compounds were dissolved at a concentration 0.02% (w/v) in DMSO (vehicle).
(§5) The test compounds were incubated with cells at a 100 μM concentration for 24 hours.
Proteoglycan synthesis was determined by [^35S]-sulfate incorporation. Cells and supernatant were extracted with 4M guanidinium chloride and purified by Sephadex colums chromatography. The amount of [^35S]-sulfate was measured by liquid scintillation counter. Results were normalized by the amount of Dna in the sample and expressed as CPM/μg DNA (CPM=count per minute).

[4] = tested on: TGFβ1 production in cellular chondrocyte cultures; experiment: Stimulation of TGFβ1 production in chondrocyte cultures (CCL-64 growth inhibition bioassay of conditioned medium); assay type: cell-based; conditions: calf chondrocyte primary cultures, compound 10^−5 M, 24 hours; untreated control = 100
Description: The primary cultures have been kept in a DMEM culture medium (Dulbecco's modified Eagle medium) (high glucose) containing bovine fetal serum (10% vol.) and antibiotics at 37° C. and in air/CO2 atmosphere (95%/5% vol.) until reaching the culture confluence. A cell sample is kept as a control and not treated with the tested compounds.
At the end the cells have been washed 3 times with a medium free from serum and added with BSA (bovine serum albumin, 200 μg/ml) for 5, 30 and 60 minutes respectively and then incubated in a medium devoid of serum (1 ml) for further 6 hours. The conditioned medium has been collected, centrifuged and kept at −70° C. until the use.
Before the experiment, 0.5 ml of cellular culture supernatant have been acidified with HCl (0.1 ml, 1 N) and incubated at room temperature for 10 min, then neutralized with NaOH/HEPES (0.1 ml NaOH 1.2N/0.5 M).
CCL-64 cellular cultures lines in a proliferative state have been prepared as described in Jennings J. C., J. Cell. Physiol.
At the twentieth hour ^3H-timidine (0.5 μCi/ml), a cellular proliferation marker, which is incorporated in the DNA of the new cells has been added to the cultures. The cultures have then been incubated for 4 hours.
At the end the cells have been cold fixed (5° C.) with trichloroacetic acid 5% v/v, washed with the same solution and dissolved in NaOH (0.1 N). […] From the amount of incorporated timidine it is shown the amount of TGF-β1. The data reported in Table 1 are expressed in percentage of TGFβ1 produced in the samples treated with the tested compounds, compared with the untreated control.

[5] = Hepatic tolerability in rats (plasma AST, ALT, bilirubin); assay type: in vivo; conditions: i.p., NO-paracetamol 1.4 g/Kg or paracetamol 1.16 g/Kg, plasma 6 hours after administration, % of control group (100%)
Description: Groups of No. 10 rats have been treated i.p. with NO-paracetamol (1.4 g/Kg i.p.) or with paracetamol (1.16 g/Kg) or with the carrier (0.9% w/v NaCl containing 20% v/v di tween-20) (control group).
After 6 hours from the administration, the animals have been sacrificed, the blood has been collected and the plasma analyzed to determine the aspartate aminotransferase (AST) and alanine aminotransferase (ALT) and bilirubin concentrations. The results are reported in Table 2 and have been expressed in pecentage with respect to the values obtained in the control group (100%).

human chondrocytes = experiment: Cell proliferation of TNFα-treated human chondrocytes ([3H]-thymidine incorporation); assay type: cell-based; conditions: TNFα 80 ng/ml, compound 100 μM, 24 hours, control without TNFα = 100, vehicle + TNFα = 50
Description: as §4, §5
Cell proliferation was determined by measuring [^3H]-thymidine incorporated into newly synthesized DNA. Cell viability was assessed by MTS assay kit.

[6] = tested on: IL-6 release in human monocytes; experiment: IL-6 release in human monocytes (ex-vivo study after oral subacute treatment); conditions: healthy subjects, 100 mg twice a day oral for seven days; monocytes 4 hours after last treatment, 10 μg/ml endotoxin 24 hours, ELISA; placebo = 100
Description: Twenty-four healthy subjects of both sexes were enrolled and randomised into three groups of 8 subjects each. Each group was administered as it follows: • placebo: vehicle (0.5% aqueous suspension of carboxymethyl cellulose); • flurbiprofen: 100 mg twice a day; • NO-flurbiprofen: 100 mg twice a day; the compound was prepared as described in example F1. The treatment lasted seven consecutive days (oral subacute treatment).
Monocytes from whole blood samples obtained before and 4 hours after the last treatment were prepared. Monocytes were extracted by positive selection using paramagnetic beads loaded with anti-CD11 antibody. Cells were then incubated with 10 μg/ml endotoxin for 24 hours, and IL-6 released in cell supernatant measured by ELISA assay.
Results are given as % in the confront of IL-6 release obtained in the placebo group.

| Structure (SMILES) | IL-6 release % in the confront of placebo [1] [%] | TGF-β release % in the confront of placebo [2] [%] | Proteoglycan synthesis % in the confront of control [3] [%] | % of produced TGFβ1 [4] [%] | further results |
| --- | --- | --- | --- | --- | --- |
| CC(C(=O)OCCCCO[N+](=O)[O-])c1ccc(-c2ccccc2)c(F)c1 (stereo not drawn) [NO-Flurbiprofen, 2-fluoro-alpha-methyl[1,1′-biphenyl]-4-acetic acid 4-nitrooxybutylester] | 10 | 150 | 70 | 650 | Increase of type II collagen mRNA levels (type II collagen mRNA): more than 100% |
| COc1ccc2c(c1)c(CC(=O)O)c(C)n2C(=O)c1ccc(Cl)cc1 [Indomethacin] | 90 | 70 | – | – | – |
| O=C(Cc1ccccc1Nc1c(Cl)cccc1Cl)OCCCCO[N+](=O)[O-] [NO-Diclofenac, 2-[(2,6-dichlorophenyl)amino]benzenacetic acid 4-nitrooxybutyl ester] | – | – | – | 550 | – |
| COc1ccc2c(c1)c(CC(=O)Oc1cccc(CO[N+](=O)[O-])c1)c(C)n2C(=O)c1ccc(Cl)cc1 [NO-indomethacin, 1-(4-Chlorobenzoyl)-5-methoxy-2-methyl-1H-indole-3-acetic acid 3-(nitrooxymethyl)phenyl ester] | 20 | 130 | – | – | – |
| CC(=O)Nc1ccc(O)cc1 [Paracetamol] | – | – | – | – | ALT [5]: 171%; AST [5]: 330%; Bilirubin [5]: 200% |
| CC(C)Cc1ccc(C(C)C(=O)O)cc1 (stereo not drawn) [Ibuprofen] | – | – | 24 | – | Cell proliferation % in the confront of control (human chondrocytes): 48% |
| CC(C(=O)O)c1ccc(-c2ccccc2)c(F)c1 (stereo not drawn) [Flurbiprofen] | 100 | 115 | 26 | 120 | IL-6 release % in the confront of placebo [6]: 100%; Increase of type II collagen mRNA levels (type II collagen mRNA): no significant effect; Cell proliferation % in the confront of control (human chondrocytes): 53% |
| CC(=O)Nc1ccc(OC(=O)CCCO[N+](=O)[O-])cc1 [NO-Paracetamol, 4-nitrooxybutanoic acid 4-acetylaminophenylester] | – | – | – | 350 | AST [5]: 160%; Bilirubin [5]: 136% |
| CC(=O)Oc1ccccc1C(=O)O [Aspirin] | – | – | – | 150 | – |
| CC(=O)Oc1ccccc1C(=O)Oc1cccc(CO[N+](=O)[O-])c1 [NO-Aspirin, 2-acetyloxybenzoic acid 3-nitrooxymethyl phenyl ester] | – | – | – | 600 | – |
